Assay results: PubChem BioAssay (NCI)
Several values for one entry are separate records, joined by “and”; a condition that tells them apart may be missing. Identical values can stand only once.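 1) Cells in 96-well plates. 2) Compound, 48 h, 5 concentrations. 3) Linear interpolation between surrounding doses. 4) Unreached endpoint = highest concentration. At the GI50, growth is halved. Definition used: TGI = concentration required for complete inhibition of growth.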

Assays:
Assay in all cases: NCI anticancer screen, dose series, 48 h
T-47D breast = test system: T-47D breast
MDA-MB-435 = test system: MDA-MB-435
M19-MEL melanoma = test system: M19-MEL melanoma
KM20L2 colon = test system: KM20L2 colon
RXF-631 renal = test system: RXF-631 renal
SNB-78 CNS = test system: SNB-78 CNS
DLD-1 colon = test system: DLD-1 colon
MDA-N = test system: MDA-N
DMS 273 small cell lung = test system: DMS 273 small cell lung

Row | Compound | GI50 (T-47D breast) | TGI (T-47D breast) [µM] | GI50 (MDA-MB-435) | TGI (MDA-MB-435) | TGI (M19-MEL melanoma) [µM] | TGI (KM20L2 colon) [µM] | TGI (RXF-631 renal) [µM] | TGI (SNB-78 CNS) [µM] | TGI (DLD-1 colon) [µM] | TGI (MDA-N) [µM] | TGI (DMS 273 small cell lung) [µM]
1 | O=[N+]([O-])c1cccc(-c2nc(-c3ccc(Cl)cc3Cl)cn2-c2ccccc2)c1 | 0.922 µM | 2.9 | 0.763 µM | 2.71 µM |  |  |  |  |  |  | 
2 | CC1=CC(C)(c2c[nH]c3ccccc23)CC(C)(C)c2c1[nH]c1ccccc21 (centres undefined) |  |  |  |  | 43.7 | 31.4 | 31.8 | > 100 | 27.2 |  | 
3 | O=C(O)C1CC=CCC1C(=O)Nc1cccc(O)c1 (centres undefined) |  | > 100 |  | > 100 µM |  |  |  |  |  | > 100 | 
4 | O=C(O)c1cc2ccccc2c2c3c(ccc12)OCO3 | 209 µM | 750 | 172 µM | 519 µM |  |  |  |  |  |  | 
5 | CC(C)c1ccc(C2NC(=S)NC3=C2c2ccccc2C3=O)cc1 (centres undefined) |  | 35.5 |  | 21.4 µM | > 100 | 64.5 | > 100 |  | > 100 | 20.6 | > 100
6 | CCCCC(C)/C=C/C(=O)C1=C(O)/C(=C/C(=O)O)OC1=O (centres undefined) |  |  |  |  |  | > 100 | > 100 | > 100 |  |  | > 100
7 | O=C1/C(=C/c2ccc3c(c2)OCCO3)CCC/C1=C\c1ccc2c(c1)OCCO2 |  |  |  |  | 81.9 | 37.5 |  | > 100 | 48.4 |  | 43.9
8 | O=S(=O)(NCCNc1nccc(-c2c(-c3ccc(F)c(O)c3)nc3sccn23)n1)c1ccc(Cl)cc1 | 1.08 µM | 8.28 |  |  |  |  |  |  |  |  | 
9 | O=C1/C=C/[C@@H](O)[C@@H]2C[C@@H](O)C[C@H]2/C=C/CCC[C@H](CCc2ccc3ncccc3c2)O1 | 0.312 µM | 8.1 | 0.318 µM | 13.3 µM |  |  |  |  |  |  | 
10 | O=c1c2ccccc2[nH]c2c(O)ccc(O)c12 |  |  |  |  | 63.6 | > 100 | 51.5 | 39.6 |  |  | 30.5
11 | O=c1c2cc(Br)cc(Br)c2nc(CCCl)n1-c1ccc(O)c([N+](=O)[O-])c1 |  |  |  |  | 29.8 |  |  | 62.3 | 36.6 |  | 36.9
12 | NCCCOc1cc2ccccc2cc1C(=O)Nc1ccc(Cl)cc1OC(=O)c1cc2ccccc2cc1OCCCN | 0.282 µM | 1.02 | 0.961 µM | 3.96 µM |  |  |  |  |  |  | 
13 | N#Cc1c(-c2ccccc2)cc(-c2ccc(N)cc2)[nH]c1=O |  |  |  |  | > 100 | > 100 | > 100 | > 100 | > 100 |  | > 100
14 | C=C1c2ccccc2C(=O)c2c1c1c(C(=O)OC)c(OC(=O)OCc3ccc([N+](=O)[O-])cc3)ccc1n2Cc1ccccc1 |  |  | 23.5 µM | > 100 µM |  |  |  |  |  |  | 
15 | COCCOCCOCc1n(Cc2ccc3ccccc3c2)c2ccccc2[n+]1Cc1ccc2ccccc2c1 | 0.216 µM | 1.12 | 0.282 µM | 1.23 µM |  |  |  |  |  |  | 
16 | C/C=C/C/C=C/[C@H](C)C[C@H](O)[C@@H]1C[C@@H]2O[C@H]2/C=C/[C@@H]2OC(C)(C)O[C@H]2/C=C/C[C@H](C)CC(=O)O1 | 2.18 µM | 8.53 | 24 µM | > 100 µM |  |  |  |  |  |  | 
17 | Nc1nonc1-c1nc2ccccc2n1Cc1ccc(F)cc1 | > 100 µM | > 100 | 1.87 µM | 5.89 µM |  |  |  |  |  |  | 
18 | COc1cc(Cl)cc(-c2nn(-c3cccc(NC(=O)Nc4cccc(C(F)(F)F)c4)c3)cc2-c2ccncc2)c1 | 1.23 µM | 6.99 | 1.74 µM | 3.82 µM |  |  |  |  |  |  | 

Row | Compound | GI50 (T-47D breast) | TGI (T-47D breast) [µM] | GI50 (MDA-MB-435) | TGI (MDA-MB-435) | TGI (M19-MEL melanoma) [µM] | TGI (KM20L2 colon) [µM] | TGI (RXF-631 renal) [µM] | TGI (SNB-78 CNS) [µM] | TGI (DLD-1 colon) [µM] | TGI (MDA-N) [µM] | TGI (DMS 273 small cell lung) [µM]
19 | CC(=O)Oc1ccc2c(c1)[C@@]1(C)CCCC(C)(C)[C@@H]1CC2 | 37.5 µM | > 100 | 16.8 µM | 40 µM |  |  |  |  |  |  | 
20 | CO[C@@H]1CCN(c2nccc(Nc3cc4c(C(C)C)ccc(N5CC(CS(C)(=O)=O)[C@H]5C)c4cn3)n2)C[C@@H]1F (some centres undefined) | 2.47 µM | 13.4 | 4.96 µM | 83.9 µM |  |  |  |  |  |  | 
21 | Cc1ccccc1NC(=O)/C=N/O |  |  |  |  | > 100 | 32 |  |  | > 100 |  | > 100
22 | CC(C)(C)OC(=O)NCCCCn1c2c(c3ccccc3c1=O)C(=O)c1ccccc1-2 | 21.9 µM | 79.8 | 35.3 µM | > 100 µM |  |  |  |  |  |  | 
23 | COC(=O)c1cccc2c3ccccc3c3ccccc3c12 |  |  |  |  | > 100 | > 100 |  |  | > 100 |  | > 100
24 | CCOC(=O)Nc1nc2ccccc2[nH]1 | 5.76 µM and 4.62 µM | > 100 | 1.28 µM and 0.674 µM | 4 µM |  |  |  |  |  |  | 
25 | [N-]=[N+]=NCCCn1c2c(c3ccc([N+](=O)[O-])cc3c1=O)C(=O)c1cc3c(cc1-2)OCO3 | 0.656 µM | > 100 | < 0.042 µM | 1.49 µM |  |  |  |  |  |  | 
26 | COc1cccc(-c2nn(-c3ccccc3)cc2-c2ccnc(NCCCNC(=O)c3cccc(C(F)(F)F)c3)c2)c1 | 2.33 µM | 8.4 | 3.27 µM | 17.1 µM |  |  |  |  |  |  | 
27 | CCOC(=O)C(=O)Nc1cc(Cl)c(Cl)cc1Cl |  |  |  |  | > 100 | > 100 | > 100 | > 100 |  |  | > 100
28 | COc1cccc(/C=C/c2nc3c(cnn3-c3ccccc3)c(=O)[nH]2)c1 |  | > 100 | 0.447 µM | > 72.4 µM |  |  |  |  |  |  | 
29 | COC(=O)CCC(=O)N1C/C(=C\c2ccccc2)C(=O)/C(=C/c2ccccc2)C1 |  |  |  |  | 11.7 | 3.82 |  | 7.83 | 10.9 |  | 2.73
30 | Cc1cccc(C)c1NC(=O)CCc1nnc2s/c(=C\c3ccc(N(C)C)cc3)c(=O)n12 |  |  |  |  |  | > 100 | > 100 | > 100 | > 100 |  | > 100
31 | C=C1C(=O)OC2C1C(OC(=O)/C(C)=C/C)CC(O)(CCl)C1C(O)C=C(C)C21O (centres undefined) |  | 42.2 |  | > 62.1 µM |  |  |  |  |  | 37.3 | 
32 | Cc1ccc(C(=O)NCCCOc2ccc(N3C(N)=NC(N)=NC3(C)C)cc2Cl)cc1S(=O)(=O)F | > 100 µM | > 100 | 56.7 µM | > 100 µM |  |  |  |  |  |  | 
33 | N#Cc1ccc(-c2c(-c3ncn[nH]3)sc(N3CCOCC3)c2C#N)c(F)c1 | 0.0391 µM | 0.522 | 0.995 µM | 17 µM |  |  |  |  |  |  | 
34 | Nc1ncnc2c1ncn2C1OC(COS(N)(=O)=O)C(O)C1O (centres undefined) |  |  | 0.00184 µM and 0.018 µM | 0.00356 µM and 0.0355 µM |  |  |  |  |  |  | 
35 | CC1=C(C(=O)NCc2ccccc2)C(c2ccc(Cl)c(Cl)c2)C(C(=O)NCc2ccccc2)=C(C)N1 |  |  |  |  | > 100 | > 100 |  | > 100 | > 100 |  | > 100
